Measured values as given in ChEMBL document CHEMBL5523762, “Discovery of Potent and Selective G9a Degraders for the Treatment of Pancreatic Cancer” (J Med Chem, 2024).
Active and inactive are the calls of the source. The calls are words filed in the database; no cut-off is given here.

Assays:
[1] = target: T1, Protein cereblon/Histone-lysine N-methyltransferase EHMT2 (Homo sapiens, UniProt Q96KQ7+Q96SW2); test: PROTAC activity at CRBN/G9a in human PANC-1 cells assessed as induction of G9a degradation at 1 uM pretreated with thalidomide for 2 hrs followed by compound addition and measured after 8 hrs by Western blot analysis; format: cell-based
PANC-1 [2] = test: Effect on H3K27me2 level in human PANC-1 cells at 0.04 to 10 uM measured after 24 hrs by Western blot analysis; format: functional, cell-based; conditions: dose 0.04-10 µM
Panc 05.04 = test: Antiproliferative activity against human Panc 05.04 cells assessed as inhibition of cell growth measured after 72 hrs by SRB assay; format: functional, cell-based
[3] = target: T1, Protein cereblon/Histone-lysine N-methyltransferase EHMT2; test: PROTAC activity at CRBN/G9a in human PANC-1 cells assessed as induction of G9a degradation at 1 uM pretreated with MG132 for 2 hrs followed by compound addition and measured after 8 hrs by Western blot analysis; format: cell-based
PANC-1 [4] = test: Effect on G9a mRNA expression at transcriptional level in human PANC-1 cells at 0.1 to 10 uM by RT-qPCR analysis; format: functional, cell-based; conditions: dose 0.1-10 µM
PANC-1 [5] = test: Effect on GLP mRNA expression at transcriptional level in human PANC-1 cells at 0.1 to 10 uM by RT-qPCR analysis; format: functional, cell-based; conditions: dose 0.1-10 µM
ASPC1 [6] = test: Induction of apoptosis in human ASPC1 cells at 10 uM incubated for 24 hrs in presence of 1 uM MRTX1133 by Annexin V-FITC/PI staining based flow cytometry analysis; format: functional, cell-based
[7] = target: T1, Protein cereblon/Histone-lysine N-methyltransferase EHMT2; test: PROTAC activity at CRBN/G9a in human PANC-1 cells assessed as induction of G9a degradation at 0.1 uM measured after 24 hrs by Western blot analysis; format: cell-based
[8] = Half life in male ICR mouse at 5 mg/kg, iv measured upto 24 hrs by LC-MS/MS analysis; format: ADME, organism-based; conditions: in vivo
PANC-08-13 = test: Synergistic antiproliferative activity against human PANC-08-13 cells assessed as combination index upto 20 uM incubated for 72 hrs in presence of MRTX1133; format: functional
PANC-1 [9] = test: Effect on H3K79me3 level in human PANC-1 cells at 0.04 to 10 uM measured after 24 hrs by Western blot analysis; format: functional, cell-based; conditions: dose 0.04-10 µM
HPAF-II [10] = test: Antiproliferative activity against human HPAF-II cells assessed as inhibition of cell growth measured after 72 hrs by SRB assay; format: functional, cell-based
ASPC1 [11] = test: Synergistic antiproliferative activity against human ASPC1 cells at 0 to 15 uM incubated for 72 hrs in presence of MRTX1133 by SRB assay; format: functional, cell-based; conditions: dose 0-15 µM
HPAF-II [12] = test: Synergistic antiproliferative activity against human HPAF-II cells assessed as combination index upto 20 uM incubated for 72 hrs in presence of MRTX1133; format: functional
[13] = Volume of distribution at steady state in male ICR mouse at 5 mg/kg, iv measured upto 24 hrs by LC-MS/MS analysis; format: ADME, organism-based; conditions: in vivo, read-out: Vdss
[14] = Half life in male ICR mouse at 20 mg/kg, ip measured upto 24 hrs by LC-MS/MS analysis; format: ADME, organism-based; conditions: in vivo
[15] = target: T1, Protein cereblon/Histone-lysine N-methyltransferase EHMT2; test: PROTAC activity at CRBN/G9a in human PANC-1 cells assessed as induction of G9a degradation at 1 uM pretreated with MLN4924 for 2 hrs followed by compound addition and measured after 8 hrs by Western blot analysis; format: cell-based
[16] = Bioavailability in male ICR mouse at 20 mg/kg, ip measured upto 24 hrs by LC-MS/MS analysis; format: ADME, organism-based; conditions: in vivo
KP-4 = test: Induction of apoptosis in human KP-4 cells at 10 uM incubated for 24 hrs in presence of 5 uM MRTX1133 by Annexin V-FITC/PI staining based flow cytometry analysis; format: functional, cell-based
[17] = target: T1, Protein cereblon/Histone-lysine N-methyltransferase EHMT2; test: PROTAC activity at CRBN/G9a in human PANC-1 cells assessed as induction of G9a degradation at 1 uM measured after 8 to 24 hrs by Western blot analysis; format: cell-based; conditions: time 8-24 hrs
[18] = Clearance in male ICR mouse at 5 mg/kg, iv measured upto 24 hrs by LC-MS/MS analysis; format: ADME, organism-based; conditions: in vivo
HPAF-II [19] = test: Synergistic antiproliferative activity against human HPAF-II cells assessed as combination index for ED90 upto 20 uM incubated for 72 hrs in presence of MRTX1133; format: functional
SW1990 = test: Antiproliferative activity against human SW1990 cells assessed as inhibition of cell growth measured after 72 hrs by SRB assay; format: functional, cell-based
PANC-1 [20] = test: Induction of apoptosis in human PANC-1 cells measured after 24 hrs by Annexin V-FITC/PI staining based flow cytometry analysis; format: functional, cell-based; conditions: dose 5-12.5 µM
[21] = Cmax in male ICR mouse at 20 mg/kg, ip measured upto 24 hrs by LC-MS/MS analysis; format: ADME, organism-based; conditions: in vivo
[22] = target: T1, Protein cereblon/Histone-lysine N-methyltransferase EHMT2; test: PROTAC activity at CRBN/G9a in human PANC-1 cells assessed as downregulation of G9a protein level at 1 uM measured after 8 hrs by quantitative proteomics analysis; format: cell-based
ASPC1 [23] = test: Synergistic antiproliferative activity against human ASPC1 cells assessed as combination index upto 20 uM incubated for 72 hrs in presence of MRTX1133; format: functional
Panc 02.03 = test: Synergistic antiproliferative activity against human Panc 02.03 cells assessed as combination index upto 20 uM incubated for 72 hrs in presence of MRTX1133; format: functional
[24] = target: T2, Protein cereblon/Histone-lysine N-methyltransferase EHMT1 (Homo sapiens) (UniProt Q9H9B1+Q96SW2); test: PROTAC activity at CRBN/GLP in human PANC-1 cells assessed as downregulation of GLP protein level at 1 uM measured after 8 hrs by quantitative proteomics analysis; format: cell-based
PANC-1 [25] = test: Effect on GSPT1 level in human PANC-1 cells at 0.008 to 10 uM measured after 8 hrs by western blot analysis; format: functional, cell-based; conditions: dose 0.008-10 µM
PANC-1 [26] = test: Effect on H3K4me3 level in human PANC-1 cells at 0.04 to 10 uM measured after 24 hrs by Western blot analysis; format: functional, cell-based; conditions: dose 0.04-10 µM
[27] = AUC (0 to t) in male ICR mouse at 20 mg/kg, ip measured upto 24 hrs by LC-MS/MS analysis; format: ADME, organism-based; conditions: in vivo
[28] = target: T2, Protein cereblon/Histone-lysine N-methyltransferase EHMT1 (Homo sapiens); test: PROTAC activity at CRBN/GLP in human PANC-1 cells assessed as downregulation of GLP protein level at 1 uM in presence of 50 uM cycloheximide measured after 0 to 16 hrs by […]; format: cell-based; conditions: time 0-16 hrs
ASPC1 [29] = test: Antiproliferative activity against human ASPC1 cells assessed as inhibition of cell growth measured after 72 hrs by SRB assay; format: functional, cell-based
[30] = target: T1, Protein cereblon/Histone-lysine N-methyltransferase EHMT2; test: PROTAC activity at CRBN/G9a in human PANC-1 cells assessed as induction of G9a degradation at 1 uM in presence of 50 uM cycloheximide measured after 4 hrs by Western blot analysis; format: cell-based
Panc1005 = test: Synergistic antiproliferative activity against human Panc1005 cells assessed as combination index for ED90 upto 20 uM incubated for 72 hrs in presence of MRTX1133; format: functional
[31] = AUC (0 to t) in male ICR mouse at 5 mg/kg, iv measured upto 24 hrs by LC-MS/MS analysis; format: ADME, organism-based; conditions: in vivo

T1 sequence (Q96KQ7 2-1210 limits assumed): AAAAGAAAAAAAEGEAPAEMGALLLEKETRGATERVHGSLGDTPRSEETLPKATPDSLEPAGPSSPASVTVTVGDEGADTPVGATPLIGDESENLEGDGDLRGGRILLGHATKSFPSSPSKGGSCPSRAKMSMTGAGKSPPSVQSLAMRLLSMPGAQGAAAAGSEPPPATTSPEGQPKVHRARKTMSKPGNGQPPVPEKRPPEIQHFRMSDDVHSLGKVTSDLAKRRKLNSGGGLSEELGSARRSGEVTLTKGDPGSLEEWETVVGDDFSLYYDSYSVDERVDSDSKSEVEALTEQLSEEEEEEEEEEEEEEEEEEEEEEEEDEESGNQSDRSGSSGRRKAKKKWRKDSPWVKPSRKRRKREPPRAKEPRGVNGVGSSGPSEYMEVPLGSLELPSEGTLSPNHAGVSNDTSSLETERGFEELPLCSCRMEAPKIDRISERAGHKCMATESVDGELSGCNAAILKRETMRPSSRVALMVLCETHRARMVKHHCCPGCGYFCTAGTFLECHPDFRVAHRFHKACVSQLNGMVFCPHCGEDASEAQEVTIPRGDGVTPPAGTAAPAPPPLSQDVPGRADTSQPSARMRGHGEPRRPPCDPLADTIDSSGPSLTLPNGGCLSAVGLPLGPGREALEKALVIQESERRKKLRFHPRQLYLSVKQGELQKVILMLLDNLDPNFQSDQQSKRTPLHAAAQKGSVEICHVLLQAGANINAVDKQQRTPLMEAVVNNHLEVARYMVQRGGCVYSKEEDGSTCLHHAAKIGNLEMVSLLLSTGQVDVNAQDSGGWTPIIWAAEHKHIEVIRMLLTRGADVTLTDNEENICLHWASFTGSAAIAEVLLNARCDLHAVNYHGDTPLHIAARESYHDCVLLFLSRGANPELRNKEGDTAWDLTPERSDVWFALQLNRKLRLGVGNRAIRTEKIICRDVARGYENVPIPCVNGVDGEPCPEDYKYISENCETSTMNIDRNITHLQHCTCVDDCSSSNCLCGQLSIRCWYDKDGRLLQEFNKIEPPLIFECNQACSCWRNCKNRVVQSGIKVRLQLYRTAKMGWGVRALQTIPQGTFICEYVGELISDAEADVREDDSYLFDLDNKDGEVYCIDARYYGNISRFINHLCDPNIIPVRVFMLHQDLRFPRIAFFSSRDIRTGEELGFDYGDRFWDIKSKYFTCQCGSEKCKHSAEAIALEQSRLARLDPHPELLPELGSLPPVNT
T1 sequence (Q96SW2 whole entry partner): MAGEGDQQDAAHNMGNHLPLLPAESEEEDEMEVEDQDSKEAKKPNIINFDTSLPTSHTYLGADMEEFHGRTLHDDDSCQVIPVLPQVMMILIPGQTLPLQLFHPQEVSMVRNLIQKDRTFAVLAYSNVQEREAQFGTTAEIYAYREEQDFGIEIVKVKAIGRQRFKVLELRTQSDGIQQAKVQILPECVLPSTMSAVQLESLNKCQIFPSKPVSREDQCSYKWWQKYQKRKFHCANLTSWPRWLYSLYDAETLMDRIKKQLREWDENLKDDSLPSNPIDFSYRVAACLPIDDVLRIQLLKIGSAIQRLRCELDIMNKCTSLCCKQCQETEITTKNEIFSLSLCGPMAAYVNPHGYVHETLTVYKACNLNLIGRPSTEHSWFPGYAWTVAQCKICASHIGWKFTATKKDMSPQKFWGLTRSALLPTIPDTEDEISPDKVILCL
T2 sequence (Q96SW2 whole entry, looked up): as the sequence (Q96SW2 whole entry partner) above
T2 sequence (Q9H9B1 whole entry, looked up): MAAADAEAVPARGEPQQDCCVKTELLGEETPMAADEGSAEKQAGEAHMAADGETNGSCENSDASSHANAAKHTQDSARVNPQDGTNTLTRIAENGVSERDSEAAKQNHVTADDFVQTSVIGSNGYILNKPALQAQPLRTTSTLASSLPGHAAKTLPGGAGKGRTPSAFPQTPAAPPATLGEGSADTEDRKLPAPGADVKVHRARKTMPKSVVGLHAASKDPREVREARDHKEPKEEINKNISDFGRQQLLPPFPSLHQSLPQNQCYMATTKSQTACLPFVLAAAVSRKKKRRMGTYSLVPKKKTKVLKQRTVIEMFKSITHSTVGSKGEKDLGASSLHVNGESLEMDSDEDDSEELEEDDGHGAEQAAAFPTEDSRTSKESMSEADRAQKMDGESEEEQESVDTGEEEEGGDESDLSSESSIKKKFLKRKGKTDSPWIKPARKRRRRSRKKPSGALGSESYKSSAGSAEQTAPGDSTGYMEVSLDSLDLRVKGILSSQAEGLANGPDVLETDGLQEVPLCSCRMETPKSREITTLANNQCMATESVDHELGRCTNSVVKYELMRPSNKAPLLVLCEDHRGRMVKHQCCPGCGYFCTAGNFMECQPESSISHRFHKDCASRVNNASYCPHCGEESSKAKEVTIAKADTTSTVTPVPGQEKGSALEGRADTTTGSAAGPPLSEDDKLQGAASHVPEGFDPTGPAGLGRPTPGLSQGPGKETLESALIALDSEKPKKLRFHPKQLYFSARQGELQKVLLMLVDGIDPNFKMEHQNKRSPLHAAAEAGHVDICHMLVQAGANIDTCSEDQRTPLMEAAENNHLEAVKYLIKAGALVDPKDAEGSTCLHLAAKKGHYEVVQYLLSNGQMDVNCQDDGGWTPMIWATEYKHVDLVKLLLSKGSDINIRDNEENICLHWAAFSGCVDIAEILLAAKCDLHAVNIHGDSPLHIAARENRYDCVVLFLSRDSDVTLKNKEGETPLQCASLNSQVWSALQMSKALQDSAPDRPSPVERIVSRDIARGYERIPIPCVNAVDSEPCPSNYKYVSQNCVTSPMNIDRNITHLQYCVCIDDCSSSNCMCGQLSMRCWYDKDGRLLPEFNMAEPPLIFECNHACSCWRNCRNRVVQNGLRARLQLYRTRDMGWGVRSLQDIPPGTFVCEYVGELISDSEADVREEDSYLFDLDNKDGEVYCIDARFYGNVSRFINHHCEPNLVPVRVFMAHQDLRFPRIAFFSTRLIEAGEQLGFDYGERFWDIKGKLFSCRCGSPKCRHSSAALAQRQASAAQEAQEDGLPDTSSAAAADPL

For `COc1cc2c(NC3CCN(CCCC(=O)NCCCCCCCCNc4cccc5c4C(=O)N(C4CCC(=O)NC4=O)C5=O)CC3)nc(C3CCCCC3)nc2cc1OCCCN1CCCC1` (configuration not stated), the Activity [1] was “inactive”, the Activity (PANC-1 [2]) was “inactive” and the Activity (Panc 05.04) was “Active”. The Activity [3] was “inactive”, the Activity (PANC-1 [4]) was “inactive” and the Activity (PANC-1 [5]) was “inactive”. For the same compound, the Activity (ASPC1 [6]) was “Active”, the Activity [7] was “Active” and the half-life [8] was 5.3 h. For the same compound, the CI (PANC-08-13) was under 0.8, the Activity (PANC-1 [9]) was “inactive” and the Activity (HPAF-II [10]) was “Active”. For the same compound, the Activity (ASPC1 [11]) was “Active”, the CI (HPAF-II [12]) was under 0.8 and the Vd [13] was 2.61 L/kg. The half-life [14] was 4.2 h, the Activity [15] was “inactive” and the bioavailability [16] was 40.6%. The Activity (KP-4) was “Active”, the Activity [17] was “Active” and the clearance [18] was 22.4 mL/min/kg. The CI (HPAF-II [19]) was under 0.4, the Activity (SW1990) was “Active” and the Activity (PANC-1 [20]) was “Dose-Dependent Effect”. The Cmax [21] was 2670 ng/mL, the Activity [22] was “Active” and the CI (ASPC1 [23]) was under 0.8. The CI (Panc 02.03) was under 0.8, the Activity [24] was “inactive” and the Activity (PANC-1 [25]) was “inactive”. For the same compound, the Activity (PANC-1 [26]) was “inactive”, the AUC(0-t) at 24 h [27] was 6150 ng·h/mL and the Activity [28] was “inactive”. For the same compound, the Activity (ASPC1 [29]) was “Active”, the Activity [30] was “Active” and the CI (Panc1005) was under 0.4. It also gave an AUC(0-t) at 24 h [31] of 3780 ng·h/mL.
